pIC50: −log10 of the molar value.
Target: ASCT2 (Homo sapiens (Human), UniProt Q15758)
Experiment: 3H-glutamine uptake inhibition in live HEK-293 cells
Format: cell-based
Details: for pIC50: inhibition of 3H-glutamine (500 nM) uptake, HEK293 cells, 15 min at 37° C., pH 6.0; for potency compared with GPNA (in words): 3H-glutamine uptake, HEK-293 cells
Text: Initial compound libraries focused on 2, 3, and 4 substituted Nγ-glutamylanilides with aryl, alicyclic, and heterocyclic substitutions. To evaluate the biological activity, compounds were initially screened at a single concentration for their ability to inhibit ^3H-glutamine uptake in live HEK-293 cells, an established model suitable for evaluating ASCT2 activity. […] The present inventors prioritized the 2-substitution as a determinant of ASCT2 activity among this series.
The glutamine uptake assays in HEK293 cells were carried out in 96 well plates (CulturPlate-96, Perkin Elmer). Cells were plated at a density of 35,000 cells per well 24 hours prior to carrying out the assay. Each set of conditions is carried out in triplicate. The wells are washed three times with 100 uL of assay buffer at pH 6.0 (containing 137 mM NaCl, 5.1 mM KCl, 0.77 mM KH2PO4, 0.71 mM MgSO4.7H2O, 1.1 mM CaCl2, 10 mM D-glucose, and 10 mM HEPES). […] (500 nM) in the same buffer is added along with inhibitor and allowed to incubate for 15 min at 37° C. Following incubation, the H-glutamine/inhibitor is removed and the cells are washed three times with buffer. The cells are then lysed by the addition of 50 uL 1M NaOH. 150 uL of scintillation fluid (Microscint 40, Perkin Elmer) is added and the plates are counted on a scintillation counter (Topcount, Perkin Elmer).

Sequence of ASCT2 (Q15758 whole entry): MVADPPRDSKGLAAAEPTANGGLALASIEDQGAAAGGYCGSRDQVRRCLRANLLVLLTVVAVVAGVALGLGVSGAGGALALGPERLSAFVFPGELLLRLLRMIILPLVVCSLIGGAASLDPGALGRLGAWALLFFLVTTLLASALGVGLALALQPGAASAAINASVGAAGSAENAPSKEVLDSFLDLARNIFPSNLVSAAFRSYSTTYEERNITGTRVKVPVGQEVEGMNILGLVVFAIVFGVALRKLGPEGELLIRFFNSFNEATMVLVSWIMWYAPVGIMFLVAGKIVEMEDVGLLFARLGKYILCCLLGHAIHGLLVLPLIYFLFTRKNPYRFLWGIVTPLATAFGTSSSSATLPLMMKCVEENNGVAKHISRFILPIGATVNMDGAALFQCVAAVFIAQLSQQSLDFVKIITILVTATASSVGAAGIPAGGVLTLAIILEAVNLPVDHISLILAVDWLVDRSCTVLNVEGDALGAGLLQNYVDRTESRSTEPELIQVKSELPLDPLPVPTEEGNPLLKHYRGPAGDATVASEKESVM

SMILES	pIC50	potency compared with GPNA (in words)
N[C@@H](CCC(=O)Nc1ccc([N+](=O)[O-])cc1)C(=O)O [Compound 1, L-γ-glutamyl-p-nitroanilide, reference compound]	3.02	–
N[C@@H](CCC(=O)Nc1ccccc1-c1nc2ccccc2s1)C(=O)O [Compound 4, N^5-(2-(benzo[d]thiazol-2-yl)phenyl)-L-glutamine]	3.36	significantly greater potency than GPNA
N[C@@H](CCC(=O)Nc1ccccc1N1CCCCC1)C(=O)O [Compound 12]	3.11	–
N[C@@H](CCC(=O)Nc1ccccc1CCc1ccncc1)C(=O)O [Compound 16]	3.08	–
N[C@@H](CCC(=O)NCc1ccccc1CS(=O)(=O)N1CCOCC1)C(=O)O [Compound 19]	3.17	–
CN1CCN(Cc2ccccc2CNC(=O)CC[C@H](N)C(=O)O)CC1 [Compound 20, N5-(2-((4-methylpiperazin-1-yl)methyl)benzyl)-L-glutamine]	3.16	significantly greater potency than GPNA

From US10189805B2, “Metabolism probes for therapy and diagnosis” (Vanderbilt University, priority 2014, dated 2019)
